Laboratory results from US7183274B2, “Piperidine-2,6-diones heterocyclically substituted in the 3-position” (Gruenenthal GmbH, priority 2001, dated 2007).
Values after ≈ are worked out from the molar mass of the structure shown.

Experiments:
[1] = tested on: IL-12 production of LPS-activated monocytes; test: Inhibition of IL-12 production of LPS-activated human monocytes (ELISA of culture supernatant); format: cell-based; conditions: 20 μg/ml LPS from E. coli, 24 hours; for IC50: Monocyte
Experimental: (§1) Stimulation of human monocytes with lipopolysaccharide for the secretion of IL-10 and IL-12:
(§2) Human monocytes were isolated from peripheral blood mononuclear cells (PBMC) that had been obtained by means of a ficoll density gradient centrifugation from heparinized full blood. For this purpose the PBMC were incubated with a monoclonal antibody that is directed against the monocyte-specific surface molecule CD14 and on which are coupled superparamagnetic microbeads (Miltenyi Biotech, Bergisch Gladbach). For the positive selection of the marked monocytes from the cell mixture of the PBMC, the total cell suspension was added to a column with ferromagnetic carrier matrix and this was placed in a magnetic field. In this way the cells that were loaded with microbeads were bound to the carrier matrix while unmarked cells passed through the column and were discarded. After removing the matrix from the magnetic field the antibody-loaded cells were eluted by rinsing the now demagnetized column with buffer. The purity of the CD14-positive monocyte population obtained in this way is about 95–98%. These monocytes were incubated for 1 hour at 37° C. and 5% CO2 in a density of 10^6 cells/ml culture medium (RPMI, supplemented with 10% fetal calf serum) with the test substances dissolved in DMSO. 20 μg/ml LPS from E. coli were then added. After 24 hours cell-free culture supernatants were taken and tested for their content of IL-10 as well as IL-12.
(§3) The concentration of IL-12 and IL-10 in the cell culture supernatants was determined by means of sandwich ELISAs using two anti-IL-12 and IL-10 monoclonal antibodies (Biosource Europe, Fleurus, Belgium). A reference standard curve with human IL-10 and IL-12 was included. The detection limit of the IL-12 ELISA was 10 pg/ml, and that of the IL-10 ELISA was 15 pg/ml.

[2] = tested on: IL-10 production of LPS-activated monocytes; test: Increase in IL-10 production of LPS-activated human monocytes (ELISA of culture supernatant); format: cell-based; conditions: 20 μg/ml LPS from E. coli, 24 hours
Experimental: as §1, §2, §3

| Compound | IC50 [1] | Inhibition of IL-12 Production Maximum (%) [1] | Increase in IL-10 Production Maximum (%) [2] | Inhibition of IL-12 Production IC50 [1] |
| --- | --- | --- | --- | --- |
| O=C1CCC(N2C(=O)c3ccccc3C2=O)C(=O)N1 (stereo not drawn) [Thalidomide, thalidomide, reference compound] | 0.1 µg/mL (≈ 0.387 µM) | 80% | 180% |  |
| O=C1CCC(N2C=Nc3cc(F)c(F)cc3C2)C(=O)N1 (stereo not drawn) [Example 7n, 3-(6,7-difluoro-4H-quinazolin-3-yl)piperidine-2,6-dione] | 0.042 µg/mL (≈ 0.15 µM) | 84% | 263% |  |
| Cc1cccc2c1CN(C1CCC(=O)NC1=O)C=N2 (stereo not drawn) [Example 7m, 3-(5-methyl-4H-quinazolin-3-yl)piperidine-2,6-dione] | 0.05 µg/mL (≈ 0.194 µM) | 89% | 202% |  |
| O=C1CCC(N2C=Nc3cccc(Cl)c3C2)C(=O)N1 (stereo not drawn) [Example 7a, 3-(5-chloro-4H-quinazolin-3-yl)piperidine-2.6-dione] |  | 98% | 365% | 0.001 µg/mL |
| O=C1CCC(N2C=Nc3cccc([N+](=O)[O-])c3C2)C(=O)N1 (stereo not drawn) [Example 7i, 3-(5-nitro-4H-ginazolin-3-yl)piperidine-2,6-dione] |  | 96% | 211% | 0.036 µg/mL |
| O=C1CCC(N2C=Nc3cccc(F)c3C2)C(=O)N1 (stereo not drawn) [Example 7h, 3-(5-fluoro-4H-quinazolin-3-yl)piperidine-2.6-dione] |  | 97% | 316% | 0.006 µg/mL |

Further lines, with some results ahead:

| IC50 [1] | Compound | Inhibition of IL-12 Production Maximum (%) [1] | Increase in IL-10 Production Maximum (%) [2] | Inhibition of IL-12 Production IC50 [1] |
| --- | --- | --- | --- | --- |
| 0.005 µg/mL | Br.O=C1CCC(N2C=Nc3cc(Cl)ccc3C2)C(=O)N1 (stereo not drawn) [Example 1, 3-(7-chloro-4H-quinazolin-3-yl)piperidine-2,6-dione; hydrobromide] | 99% | 360% |  |
| 0.01 µg/mL | Br.O=C1CCC(N2C=Nc3ccccc3C2)C(=O)N1 (stereo not drawn) [Example 3, 3-(4H-quinazolin-3-yl)piperidine-2,6-dione; hydrobromide] | 98% | 230% |  |
| 0.0008 µg/mL | Cl.O=C1CCC(N2C=Nc3cc(F)ccc3C2)C(=O)N1 (stereo not drawn) [Example 7f, 3-(7-fluoro-4H-quinazolin-3-yl)piperidine-2,6-dione; hydrochloride] | 98% | 420% |  |
